In patent US20230414786A1, “PERFUSION-GUIDED GENE THERAPY FOR IMPROVING CANCER TREATMENT” (priority 2022, published 2023):

What was measured:
[1] = cited from earlier work
iNOS = assay: ELISA of protein extracts from transfected NGP cells (iNOS expression); format: cell-based, H. sapiens; settings: NGP cell protein extracts, n=3
[2] = test system: iNOS expression in tumor endothelium of NGP tumors; assay: iNOS immunohistochemistry in tumor endothelium (lectin-positive area) 72 h after sonopermeation transfection; format: in vivo, nude athymic mice; settings: 72 h after transfection
Description: (§1) Orthotopic NGP Tumor Model and Implantation. NGP cells were MYC-N amplified, and thus function as an appropriate model for poor prognosis NB. They reproduce many features of clinical NB, such as histology, frequency, and location of metastatic lesions when renally implanted, as was done in nude athymic mice (Charles River, Wilmington, Mass.) to generate tumor models for this study. Mice were firstly anesthetized with inhalable isoflurane. After being positioned in a sterile environment, the entire right side of each mouse was cleaned with ethanol and painted with Betadine. A 3-5 mm diagonal incision was made with a scalpel blade toward the ribcage atop the kidney. The underlying fascia was cut with scissors to expose the right kidney. A 27-gauge needle (of length 1.3 cm, BD Biosciences) fitted to a syringe containing 20 μL of cell suspension (1×10^6 NGP cells in Phosphate Buffered Saline, Leibniz Institute DSMZ-GmbH, Braunschweig, Germany) was inserted into the kidney and its contents injected slowly. The kidney was then returned to the abdominal cavity. […] Mice were monitored daily to confirm complete recovery, and tumors were allowed to grow for 4-5 weeks (1-2-g weight) before ultrasound experiments were initiated. […]
Quantitative Ex Vivo Imaging. […] The images were then analyzed in ImageJ (NIH, USA), selecting the lectin-positive area of the picture taken to create the area to be quantified. […]

[3] = test system: iNOS expression in adjacent glomeruli; assay: iNOS immunohistochemistry in adjacent kidney glomeruli after sonopermeation transfection; format: in vivo, nude athymic mice; settings: p>0.05
Description: Quantitative Ex Vivo Imaging. For iNOS expression colocalization studies, sections were imaged on a Marianas Confocal (Zeiss) using a 40X oil objective, capturing 14 steps of 0.33 μm on the z-axis, with a resolution of 0.33 μm per pixel. At least five images of each tumor of were taken, with four tumors per group. To avoid bias, the endothelial marker Isolectin-B4 was used to determine image capture and focus and iNOS staining was captured at equal exposure times for all tissues. The images were then analyzed in ImageJ (NIH, USA), selecting the lectin-positive area of the picture taken to create the area to be quantified. This area was then used to quantify the mean intensity of the iNOS staining within the tumor endothelium. The mean iNOS intensity within each tumor endothelium z-stack was then averaged to obtain the mean iNOS intensity of each tumor blood vessel analyzed. Averages were then obtained for each tumor. Because tumor cells were injected directly into the kidney and often coopt glomeruli and tubules (PMID: 24066611), NOS expression was quantified in the adjacent kidney in a separate analysis, following the same method as tumor iNOS quantification. Quantification of pimonidazole and Isolectin was performed using the average intensities from the respective stains comparing the iNOS treated and Sham groups using FIJI (NIH). […]

orthotopic NGP tumor [4] = assay: Quantitative contrast-enhanced ultrasound (qCEUS) imaging of tumor perfusion volume and reperfusion rate; format: in vivo, nude athymic mice
Description: as §1, with “kidney.” for “kidney. A 27-gauge needle (of length 1.3 cm, BD Biosciences) fitted to a syringe containing 20 μL of cell suspension (1×10^6 NGP cells in Phosphate Buffered Saline, Leibniz Institute DSMZ-GmbH, Braunschweig, Germany) was inserted into the kidney and its contents injected slowly. The kidney was then returned to the abdominal cavity.”
3D Volume and 2D Perfusion Imaging. […] Data were collected and subsequently analyzed using custom LabVIEW software, where tumor boundaries were manually segmented. […] As described in Wei K, et al., Quantification of Myocardial Blood Flow With Ultrasound-Induced Destruction of Microbubbles Administered as a Constant Venous Infusion, Circulation, 1998; 97: 473-83, MB perfusion conforms to the equation y=A (1−e^βt), where A is the relative blood volume (RBV) and β is the rate of reperfusion. […]

orthotopic NGP tumor [5] = assay: Immunohistochemical analysis of tumor vascularity and hypoxia (Isolectin-B4, aSMA, pimonidazole) 72 h after transfection; format: in vivo, nude athymic mice; set-up: unit not given here
Method: Tumoral Hypoxia Measurements. 60 mg/kg pimonidazole-HCl (Hypoxyprobe, Massachusetts) was injected intraperitoneally 30 min before sacrifice, and tissues were harvested and processed as described above.
Immunohistochemistry. Excised NGP tumors were embedded in Tissue-Tek® optimum cutting temperature (O.C.T.) compound (Electron Microscopy Services), then stored at −20 ° C. until cryosectioned (Leica CM1860). 15 μm thick cryosections were fixed with acetone and permeabilized with Tween 20. […]
Quantitative Ex Vivo Imaging. […] The images were then analyzed in ImageJ (NIH, USA), selecting the lectin-positive area of the picture taken to create the area to be quantified. This area was then used to quantify the mean intensity of the iNOS staining within the tumor endothelium. The mean iNOS intensity within each tumor endothelium z-stack was then averaged to obtain the mean iNOS intensity of each tumor blood vessel analyzed. […] Because tumor cells were injected directly into the kidney and often coopt glomeruli and tubules (PMID: 24066611), NOS expression was quantified in the adjacent kidney in a separate analysis, following the same method as tumor iNOS quantification. Quantification of pimonidazole and Isolectin was performed using the average intensities from the respective stains comparing the iNOS treated and Sham groups using FIJI (NIH). […]

orthotopic NGP tumor [6] = assay: Animal survival study (days for tumors to increase by 50% above starting volume, up to 14 days); format: in vivo, nude athymic mice; settings: plasmid transfection followed by L-DOX with sonopermeation; study endpoint 14 days
Method: Animal Survival Studies. Survival in vivo experiments were performed as detailed above. Briefly, mature tumors were primed with gene therapy (either mKate or iNOS), transfected by sonopermeation with 1×10^9 cationic polydispersed MBs having median diameter ˜2 μm. 72 h following gene therapy treatment, sonopermeation was performed using net-neutral lipid MBs to deliver liposomal doxorubicin as described above. For this experiment, due to the volume of bubbles needed, size-isolated microbubbles (SIMBs) were obtained from Advanced Microbubbles Inc to perform imaging and sonopermeation. Tumors were measured every other day until they reached the endpoint criteria up to 14 days using calipers, and re-imaged with a bolus of 1×10^7 SIMBs on Day 7 as well as re-dosed with L-DOX in conjunction with sonopermeation. Normalized tumor growth over the two-week observation period was obtained by dividing the volume on any given day by initial tumor volume. Kaplan-Meier curves were generated to plot the number of days it took for tumors to increase by 50% above their starting volume up to 14 days. Survival curves were plotted, and statistical analyses were conducted in Graphpad (Prism 6). Statistical significance between groups represents Mantel-Cox test, with p<0.05 interpreted as significant.

Q: For [N]=O [NO, Nitric oxide], which half-life in vivo ([1]; in vivo) is on record?
A: < 0.002 s

Q: What about the “half-life in whole blood” value ([1]; whole blood) of the same molecule?
A: 0.0018 s

Q: With Sham as the molecule, how does the “iNOS protein by ELISA” value (iNOS) read?
A: 0.04 units

Q: And the “iNOS in tumor endothelial cells compared with untreated tumors” value [2]?
A: no change in iNOS

Q: What about the “iNOS mean intensity within lectin-positive area” value ([2]; n=4 per group) of the same molecule?
A: 8,814±2,952

Q: What about the “iNOS expression in adjacent glomeruli” value [3] of the same molecule?
A: remains unchanged

Q: What about the “change in RBV (normalized to tumor volume, vascularity) from baseline” value (orthotopic NGP tumor [4]; 3 days post-transfection) of the same molecule?
A: 68±7%

Q: And the “rate of MB reperfusion (RR) normalized to TV” value (orthotopic NGP tumor [4]; day 3 after transfection)?
A: 77±8%

Q: And the “distance between aSMA pericytes and endothelium” value (orthotopic NGP tumor [5])?
A: 5.8±1.1

Q: And the “median survival time (time to 50% tumor growth)” value (orthotopic NGP tumor [6])?
A: 9 days
